The subject of experiment [1] is Wheat scab (Microdochium nivale). The experiment in a line: Test of inhibition of growth of wheat scab mycelium. It is filed as cell-based. To be noted: read-out: inhibition rate (mycelium growth length).
For experiment [2], the system named is powdery mildew (Sphaerotheca cucurbitae). The experiment in a line: Test of effect on cucumber powdery mildew, vaporization properties. To be noted: 100 ppm drug solution dropped on aluminum foil on cucumber first leaf; seven days after inoculation; 2 cm or more = vaporization effect. The class given is in vivo. On the procedure:
A 10-mm square piece of aluminum foil was attached with a double-sided tape on the first leaf of cucumber planted in a 7.5-cm-diameter pot. […] The drug solution was added dropwise in […] using a micropipette. After air-drying the drug solution, the leaf was inoculated by spraying with a spore suspension of powdery mildew (Sphaerotheca cucurbitae). Seven days after inoculation, the diameter of a disease development inhibition circle on the cucumber first leaf was measured. The appearance of necrotic lesions on the leaf was examined in comparison with the untreated plot. There was judged to be a vaporization effect when an inhibition circle having a diameter of 2 cm or more was formed around the aluminum foil.

The test system of experiment [3] is wheat powdery mildew (Erysiphe graminis). Put plainly: Test of preventive effect on wheat powdery mildew. The following applies: wheat seedlings.
[4] abbreviates: treatment concentration 100 ppm.

The inhibition is how much of the control response was suppressed.

In the case of `Cc1cc(N=CN(C)C)c(C)cc1C#CC(C)(C)C` [Compound 52, N,N-dimethyl-N′-[2,5-dimethyl-4-(3,3-dimethyl-1-butynyl)phenyl]formamidine], the inhibition at 10 ppm in experiment [1] is 100%.
`Cc1cc(N=CN(C)C)c(C)cc1C#C[Si](C)(C)C` [Compound 59, N,N-dimethyl-N′-[2,5-dimethyl-4-(2-trimethylsilyl-1-ethynyl)phenyl]formamidine]: in experiment [1], the inhibition at 10 ppm is 100%.
In the case of `CCN(C)C=Nc1ccc(C#CC(C)(C)C)cc1C` [Compound 66, N-ethyl-N-methyl-N′-[2-methyl-4-(3,3-dimethyl-1-butynyl)phenyl]formamidine], the inhibition at 10 ppm in experiment [1] came out at 100%.
For the compound `CCN(C)C=Nc1ccc(C#C[Si](CC)(CC)CC)cc1C` [Compound 69], the “Diameter of disease development inhibition circle” value in experiment [2] is recorded as 2.75 cm.
For the compound `CCN(C)C=Nc1cc(C)c(C#CC(C)(C)C)cc1Cl` [Compound 85], in experiment [2], the “Diameter of disease development inhibition circle” value is 6.0 cm.
As for `CCN(C)C=Nc1cc(Cl)c(C#CC(C)(C)C)cc1C` [Compound 91], in experiment [2], the “Diameter of disease development inhibition circle” value turned out to be 6.0 cm.
In the case of `CCN(C)C=Nc1cc(Cl)c(C#C[Si](C)(C)C)cc1C` [Compound 93], the “Diameter of disease development inhibition circle” value in experiment [2] is listed as 6.0 cm.
In the case of `CCN(C)C=Nc1cc(C)c(C#CC(C)(C)C)cc1C` [Compound 98], the “Diameter of disease development inhibition circle” value in experiment [2] worked out at 9.5 cm.
With `CCN(C)C=Nc1cc(C)c(C#C[Si](C)(C)C)cc1C` [Compound 123, N-ethyl-N-methyl-N′-[2,5-dimethyl-4-(2-trimethylsilyl-1-ethynyl)phenyl]formamidine], in experiment [1], the inhibition at 10 ppm is 100%. For the same compound, the Preventive value in experiment [3] (treatment concentration 10 ppm), in experiment [3] (treatment concentration 20 ppm), in experiment [3] (treatment concentration 40 ppm) and in experiment [3] (setting [4]) was 100 each time. The “Diameter of disease development inhibition circle” value in experiment [2] came to 9.5 cm.
Take `CCN(C)C=Nc1cc(C)c(C#C[Si](CC)(CC)CC)cc1C` [Compound 124]: the “Diameter of disease development inhibition circle” value in experiment [2] was 3.75 cm.
Same read-out and setting: next, `CCN(C)C=Nc1cc(C)c(C#C[Si](C)(C)C(C)(C)C)cc1C` [Compound 126]: 6.5 cm; `CCN(C)C=Nc1cc(C)c(C#CC[Si](C)(C)C)cc1C` [Compound 127]: 2.0 cm.
`Cc1cc(N=CN2CCCCC2)c(C)cc1C#C[Si](C)(C)C` [Compound 147]: the “Diameter of disease development inhibition circle” value in experiment [2] came out at 2.5 cm.
Regarding `CCN(C)C=Nc1cc(F)c(C#C[Si](C)(C)C)cc1C` [Compound 158], the “Diameter of disease development inhibition circle” value in experiment [2] worked out at 3.75 cm.
Regarding `CCN(C)C=Nc1cc(C)c(C#CC(C)(C)O[Si](C)(C)C)cc1C` [Compound 161], the “Diameter of disease development inhibition circle” value in experiment [2] is reported as 6.0 cm.
The same measure, in the same setting: the figure for `CCN(C)C=Nc1cc(C)c(C#C[Si](C)(C)C)cc1C.Cl` [Compound 162, N-ethyl-N-methyl-N′-[2,5-dimethyl-4-(2-trimethylsilyl-1-ethynyl)phenyl]formamidine hydrochloride] is 8.0 cm; for `CCN(C)C=Nc1cc(C)c(C#C[Si](C)(C)C(C)(C)C)cc1C.Cl` [Compound 163] it is 8.0 cm; for `Cc1cc(N=CN(C)C(C)C)c(C)cc1C#C[Si](C)(C)C(C)(C)C` [Compound 171] it is 7.0 cm.
As for `CCN(C)C=Nc1cc(Cl)c(C#CC(C)(C)C)cc1C.Cl` [Compound 172], the “Diameter of disease development inhibition circle” value in experiment [2] was determined as 7.0 cm.
For the compound `CC1(C)[C@H]2CC[C@]1(CS(=O)(=O)O)C(=O)C2.CCN(C)C=Nc1cc(C)c(C#C[Si](C)(C)C)cc1C` [Compound 175], the “Diameter of disease development inhibition circle” value in experiment [2] is 7.0 cm.
On to `CCN(C)C=Nc1cc(F)c(C#C[Si](C)(C)C)cc1C.Cl` [Compound 176], for which the “Diameter of disease development inhibition circle” value in experiment [2] was 7.0 cm.
With `CCN(C)/C=N/c1ccc(-c2ccc(C(C)(C)C)cc2)cc1C` [Reference Compound A], the Preventive value in experiment [3] (treatment concentration 10 ppm) is reported as 10; in experiment [3] (treatment concentration 20 ppm), 20; in experiment [3] (treatment concentration 40 ppm), 70; in experiment [3] (setting [4]) it was 100. The “Diameter of disease development inhibition circle” value in experiment [2] was 0 cm.
The like results for `CCN(C)/C=N/c1cc(C)c(-c2ccc(C(C)(C)C)cc2)cc1C` [Reference Compound B] were, in that order, 40, 70, 70, 95 and 0 cm.
For “N-ethyl-N-methyl-N′-[2,5-dimethyl-4-(2-trimethylsilyl-1-ethynyl)phenyl]formamidine (+)-camphorsulfonate [Compound 174]”, in experiment [2], the “Diameter of disease development inhibition circle” value was found to be 7.0 cm.
